Experimental data taken from patent US11191744B2, “Pharmaceutical active ingredient and use thereof, in particular for the prevention and treatment of metabolic disorders in humans and animals” (VALBIOTIS, priority 2017, dated 2021).
Several values for one entry are separate records, joined by “and”; a condition that tells them apart may be missing. Equal values may be shown once.

How the values were obtained:
Assay type in all cases: in vivo
[1] = tested on: db/db mice; test: Fasting insulinemia in db/db mice after 6 weeks of treatment; conditions: for Median values of insulinemia after 6 weeks of treatment: male db/db mice, fasted 6 h, compositions in the diet; for median insulinemia compared with CONTROL (in words): db/db mice, after 6 weeks of treatment
Method: (§1) The composition was also compared to metformin, one of the main pharmaceutical molecules prescribed for the treatment of type 2 diabetes.
(§2) Experiments were performed on db/db mice, a model mimicking the characteristics of type 2 diabetes in humans (Roesler W J et al., Mol Cell Biochem 1990; 92(2):99-106). These mice are insulin-resistant, hypertriglyceridemic, and glucose intolerant. They very quickly develop pre-diabetes, a type 2 diabetes and then NASH.
FIG. 1 illustrates the evolution of insulinemia and glycemia (glucose) over time in this model (Joost H G et al., Animal Models in Diabetes Research, Humana Press). As for humans, the rise in glycemia is initially accompanied by an increase in insulinemia (associated with insulin resistance), evidence of a pancreas still able to secrete insulin, then a decrease, reflecting functional degeneration of the pancreas, and thus progression of type 2 diabetes with the need for insulin therapy (Kobayashi K et al., Metabolism: Clinical and experimental 2,000; 49:22-31 Tao H et al Nat Med 2014; 20(11):1263-1269).
(§3) The experimental time for the trial was […] with a 1 week run-in followed by 6 weeks of treatment. The male mice were 6 weeks old at the start of treatment. The (1S,3R,4R,5R)-3-{[(2E)-3-(3,4-dihydroxyphenyl)-2-propenoyl]oxy}-1,4,5-trihydroxycyclohexanecarboxylic acid alone, the methyl (2S,3E,4S)-4-{2-[2-(3,4-dihydroxyphenyl)ethoxy]-2-oxoethyl}-3-ethylidene-2-(β-D-glucopyranosyloxy)-3,4-dihydro-2H-pyran-5-carboxylate alone, and the mixture of these two molecules in a ratio of 1/4.65 have been tested and compared with metformin. These compositions were directly integrated into the diet of rodents, thus ensuring large-scale use, with injections, for example, intravenous, being limited to a small number given their mode of administration.
(§4) After randomization by weight and fasting glycemia, the animals were divided into the following groups: • Control (n=15): CONTROL; • Metformin (n=12, 0.2% of the diet): MET; • (1S,3R,4R,5R)-3-{[(2E)-3-(3,4-dihydroxyphenyl)-2-propenoyl]oxy}-1,4,5-trihydroxycyclohexanecarboxylic acid (n=12, 0.026% of the diet): V63X35; • The methyl (2S,3E,4S)-4-{2-[2-(3,4-dihydroxyphenyl)ethoxy]-2-oxoethyl}-3-ethylidene-2-(β-D-glucopyranosyloxy)-3,4-dihydro-2H-pyran-5-carboxylate (n=11, 0.12% of diet): V63X54; • The (1S,3R,4R,5R)-3-{[(2E)-3-(3,4-dihydroxyphenyl)-2-propenoyl]oxy}-1,4,5-trihydroxycyclohexanecarboxylic acid+methyl (2S,3E,4S)-4-{2-[2-(3,4-dihydroxyphenyl)ethoxy]-2-oxoethyl}-3-ethylidene-2-(β-D-glucopyranosyloxy)-3,4-dihydro-2H-pyran-5-carboxylate (n=11, respectively 0.026% and 0.12% of the feed): V63,000.
(§5) Experimental evaluations performed on an empty stomach (6 h) after 6 weeks of treatment were in particular concerned with: • The measurement of weight; • Measuring glycemia; • Measuring of insulinemia; • Measuring of serum triglycerides.

[2] = tested on: db/db mice; test: Fasting glycemia in db/db mice after 6 weeks of treatment; conditions: for effect on fasting glycemia (in words): db/db mice, after 6 weeks of treatment, versus CONTROL; for Fasting glycemia after 6 weeks of treatment: male db/db mice, fasted 6 h, compositions in the diet, mean values ± SEM
Method: as §1, §2, §3, §4, §5
The synergistic effect on fasting glycemia was evaluated according to the Colby SR method described in “Calculation of the synergistic and antagonistic responses of herbicide combinations” Weeds, 1967, 15:20-22. A factor>1 indicates the existence of a synergistic effect. A factor<1 indicates the existence of an antagonist.
V63X54 represents the percent change in glycemia for the V63X54 group compared to the CONTROL group.

[3] = tested on: db/db mice; test: Fasting serum triglycerides in db/db mice after 6 weeks of treatment
Method: as §1, §2
as §3, with “administration. […]” for “administration.”

Structure (SMILES) | Median values of insulinemia after 6 weeks of treatment [1] | effect on fasting glycemia (in words) [2] | Fasting glycemia after 6 weeks of treatment [2] | reduction of blood triglyceride levels ([3]; db/db mice, after 6 weeks of treatment, versus CONTROL) | Serum triglycerides after 6 weeks of treatment ([3]; male db/db mice, fasted 6 h, compositions in the diet, mean values ± SEM) | median insulinemia compared with CONTROL (in words) [1]
CN(C)C(=N)N=C(N)N [MET, metformin, reference compound] | 21.89 ng/mL | no effect | 454 mg/dL and 454 ± 34 mg/dL | 35.6% | 132.6 ± 7.4 mg/dL | –
O=C(/C=C/c1ccc(O)c(O)c1)O[C@@H]1C[C@](O)(C(=O)O)C[C@@H](O)[C@H]1O [V63X35, (1S,3R,4R,5R)-3-{[(2E)-3-(3,4-dihydroxyphenyl)-2-propenoyl]oxy}-1,4,5-trihydroxycyclohexanecarboxylic acid] | 22.39 ng/mL | no effect | 454 ± 34 mg/dL | – | – | no difference
C/C=C1/[C@H](O[C@@H]2O[C@H](CO)[C@@H](O)[C@H](O)[C@H]2O)OC=C(C(=O)OC)[C@H]1CC(=O)OCCc1ccc(O)c(O)c1 [V63X54, methyl (2S,3E,4S)-4-{2-[2-(3,4-dihydroxyphenyl)ethoxy]-2-oxoethyl}-3-ethylidene-2-(β-D-glucopyranosyloxy)-3,4-dihydro-2H-pyran-5-carboxylate] | 25.44 ng/mL | no effect | 432 ± 27 mg/dL | – | – | no difference
